Here are results for five molecules from US11492343B2, “Polymorph of flibanserin and preparation method thereof and use of same” (priority 2016, dated 2022).

The structures appear in SMILES notation.

The conditions of data set [1]: prior art; cited from earlier work.
The conditions of data set [2]: prior art WO2003/014079; cited from earlier work.
Data set [3] in a line: Solubility of crystal forms in pH 6.8 buffer solution (HPLC of filtrate). It is filed as physicochemical. The note with it: for Solubility in pH 6.8 buffer: 20 mg in 1 mL pH 6.8 buffer, suspension equilibrated for 1 hour, 0.45 μm filter, HPLC; for Solubility compared with crystal form A: in physiological solution. The procedure:
The solubility of several new crystal forms prepared in the above examples and Form A (prepared according to the method of WO2003/014079) in a pH buffer solution (pH 6.8) was determined. Precisely weigh 20 mg Form I, Form II, Form V and Form A in a 2-mL glass vial, add 1 mL of pH 6.8 buffer, seal with cap, and mix on a rotating mixer. After the suspension was equilibrated for 1 hour, the mixture was filtered through a 0.45 μm needle filter, and the concentration of flibanserin in the filtrate was analyzed by HPLC to obtain the solubility of different crystal forms.

As to `O=c1[nH]c2ccccc2n1CCN1CCN(c2cccc(C(F)(F)F)c2)CC1` [Form A], the Solubility in water entry in data set [1] is on record as “very small”. `O=c1[nH]c2ccccc2n1CCN1CCN(c2cccc(C(F)(F)F)c2)CC1` [Form B]: the “Stability under pressure and mechanical stress conditions” value in data set [2] is on record as “low stability”. As for `O=c1[nH]c2ccccc2n1CCN1CCN(c2cccc(C(F)(F)F)c2)CC1` [Form II], in data set [3], the “Solubility in pH 6.8 buffer” value came out at 0.008 mg/mL and the “Solubility compared with crystal form A” value is on record as “greater”. Consider `O=c1[nH]c2ccccc2n1CCN1CCN(c2cccc(C(F)(F)F)c2)CC1` [Form I], for which, in data set [3], the “Solubility in pH 6.8 buffer” value came out at 0.004 mg/mL and the “Solubility compared with crystal form A” value is reported as “greater”. Take `O=c1[nH]c2ccccc2n1CCN1CCN(c2cccc(C(F)(F)F)c2)CC1` [Form V]: in data set [3], the “Solubility in pH 6.8 buffer” value was 0.010 mg/mL and the “Solubility compared with crystal form A” value is given as “greater”.
